Measured values published in PMC9576617, “A new LKB1 activator, piericidin analogue S14, retards renal fibrosis through promoting autophagy and mitochondrial homeostasis in renal tubular epithelial cells” (Theranostics, 2022).

Molecular target: T1, LKB1 (Liver kinase B1, STK11) (Homo sapiens, UniProt Q15831)
T1 construct: Recombinant Human LKB1 (CSB-EP624036HU)
T1 sequence (Q15831 1-430): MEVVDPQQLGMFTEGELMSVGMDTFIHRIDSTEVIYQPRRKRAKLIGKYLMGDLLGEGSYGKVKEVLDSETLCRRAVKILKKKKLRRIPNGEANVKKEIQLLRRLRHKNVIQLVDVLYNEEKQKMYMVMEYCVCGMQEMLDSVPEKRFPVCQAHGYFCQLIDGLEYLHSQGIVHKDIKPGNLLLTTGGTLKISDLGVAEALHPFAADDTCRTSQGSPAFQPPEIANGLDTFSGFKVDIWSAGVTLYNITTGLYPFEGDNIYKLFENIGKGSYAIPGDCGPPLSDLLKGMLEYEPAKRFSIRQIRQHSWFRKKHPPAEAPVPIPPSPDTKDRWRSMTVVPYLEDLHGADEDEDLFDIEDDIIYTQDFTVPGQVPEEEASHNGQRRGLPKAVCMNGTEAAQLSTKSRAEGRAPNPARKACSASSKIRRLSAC
Experiment: SPR imaging (PlexArray HT A100), LKB1 immobilized on a 3D Dextran chip, […] fit
Assay type: binding

## COc1nc(C/C=C(\C)C/C=C/C(C)=C/[C@@H](C)[C@@H](O[C@@H]2O[C@H](CO)[C@@H](O)[C@H](O)[C@H]2O)/C(C)=C/CO)c(C)c(O)c1OC [PA-S14, piericidin analogue S14]
  Kd: 120 nM
